# Measurements reported in patent US11434237B2, “Selective ligands for tau aggregates” (KARIN & STEN MORTSTEDT CBD SOLUTIONS AB, priority 2017, dated 2022).
# Entries after “also recorded” stand apart in the source; their conditions may differ.
# Tests used:
# [1] = biological target: T1, Aβ aggregates (Homo sapiens, UniProt P05067); experiment: Compound and antibody 4G8 double staining of AD brain tissue sections; format: binding; settings: for Overlap between Fluorescence from tested compound and fluorescence from 4G8 observed / Fluorescence from tested compound observed / Staining of / selectivity for Aβ and tau aggregates in AD brain sections: 100 nM compound; for Overlap between Fluorescence from tested compound and fluorescence from 4G8 observed / Fluorescence from tested compound observed: human AD brain tissue sections; for Overlap between Fluorescence from tested compound and fluorescence from 4G8 observed: Aβ antibody 4G8; for Fluorescence from tested compound observed: double staining with Aβ antibody 4G8; for Fluorescence from 4G8 observed: signal of Aβ antibody 4G8 in the section stained with 100 nM of the compound; for Staining of / selectivity for Aβ and tau aggregates in AD brain sections: stained in combination with 4G8
# T1 construct: compound and antibody double staining of Aβ or tau aggregates; from tissue; host or cells: human AD brain tissue sections (20 μm)
# Procedure: (§1) To achieve compound and antibody double staining of Aβ or tau aggregates, tissue sections (20 μm) from human AD brain were fixed in 70% EtOH at 4° C. for 3 min, rehydrated in distilled water and then incubated in PBS for 30 min. Sections were blocked and permeabilized in PBS with 5% normal goat serum and 0.1% triton X-100 (blocking buffer) for 1 h at room temperature (RT). Antibody 4G8 (Biolegend, San Diego, Calif., USA) reactive to Aβ, and AT100 (Thermo Fisher Scientific, Waltham, Mass., USA) directed against tau phosphorylated at […] (3) were diluted 1:500 and 1:1000, respectively, in blocking buffer and added to the sections. After 16 h incubation at 4° C. unbound antibody was removed by washing in PBS with 0.1% triton X-100 (PBS-T) 3×10 min. To visualize antibody binding to Aβ or tau aggregates sections were incubated with goat anti-mouse secondary antibody labelled with Alexa 647 (Thermo Fisher Scientific). The antibody was diluted 1:200 in blocking buffer and after 1 h incubation at RT sections were washed in PBS 3×10 min. Example Compound 3a, Example Compound 3b, Example Compound 3c, Example Compound 3d, Example Compound 3e, Example Compound 3f, Example Compound 3g, Example Compound 3h, Example Compound 3i, Example Compound 3j, Example Compound 3k, Example Compound 3m, Example Compound 3n, Example Compound 3o, Example Compound 3p, Example Compound 3q, Example Compound 3r, Example Compound 3s, Example Compound 3t, Example Compound 3u, Example Compound 8a, Comparative Example 1, Comparative Example 2, Comparative Example 3 and Comparative Example 4 were dissolved in DMSO to a concentration of 1.5 mM and then further diluted in PBS to a final concentration of 100 nM compound prior to staining. The tissue sections were then stained for 30 min at RT with these freshly prepared solutions containing 100 nM of the respective compound in PBS. After three washes in PBS the sections were mounted in Dako mounting medium for fluorescence (Dako Cytomation, Glostrup, Denmark) and allowed to dry overnight before analysis. Fluorescence images were collected using an inverted LSM 780 confocal microscope (Carl Zeiss, Oberkochen, Germany) with the following excitation/emission wavelengths optimized for each compound: 458/484-600 (Comparative Example 1, Comparative Example 3), 561/569-648 (Example Compound 3a, Example Compound 3b, Example Compound 3c, Example Compound 3d, Example Compound 3e, Example Compound 3f, Example Compound 3g, Example Compound 3h, Example Compound 3i, Example Compound 3j, Example Compound 3k, Example Compound 3m, Example Compound 3n, Example Compound 3o, Example Compound 3p, Example Compound 3q, Example Compound 3r, Example Compound 3s, Example Compound 3t, Example Compound 3u, Example Compound 8a, Comparative Example 2 and Comparative Example 4) and 633/638-755 (Alexa 647). To visualize autofluorescent lipofuscin excitation/emission wavelengths 405/410-480 or 405/410-514 were used.
# [2] = biological target: T2, tau aggregates (Homo sapiens, UniProt P10636); experiment: Compound and antibody AT100 double staining of AD brain tissue sections; format: binding; settings: for Labelling of immune-positive NFTs and dystrophic neurites / Fluorescence from tested compound observed / Overlap between Fluorescence from tested compound and fluorescence from AT-100 observed: 100 nM compound; for Labelling of immune-positive NFTs and dystrophic neurites: AT100 co-staining, AD brain sections; for Fluorescence from tested compound observed / Overlap between Fluorescence from tested compound and fluorescence from AT-100 observed: human AD brain tissue sections; for Fluorescence from tested compound observed: double staining with tau antibody AT-100; for Overlap between Fluorescence from tested compound and fluorescence from AT-100 observed: tau antibody AT-100; for Fluorescence from AT-100 observed: signal of tau antibody AT-100 in the section stained with 100 nM of the compound
# T2 construct: tissue sections (20 μm) from human AD brain; from tissue; host or cells: human AD brain tissue sections (20 μm)
# Procedure: as §1
# T1 sequence (P05067 672-713 limits assumed): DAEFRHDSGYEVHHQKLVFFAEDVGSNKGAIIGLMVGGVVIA
# T2 sequence (P10636 1-441 isoform P10636-8): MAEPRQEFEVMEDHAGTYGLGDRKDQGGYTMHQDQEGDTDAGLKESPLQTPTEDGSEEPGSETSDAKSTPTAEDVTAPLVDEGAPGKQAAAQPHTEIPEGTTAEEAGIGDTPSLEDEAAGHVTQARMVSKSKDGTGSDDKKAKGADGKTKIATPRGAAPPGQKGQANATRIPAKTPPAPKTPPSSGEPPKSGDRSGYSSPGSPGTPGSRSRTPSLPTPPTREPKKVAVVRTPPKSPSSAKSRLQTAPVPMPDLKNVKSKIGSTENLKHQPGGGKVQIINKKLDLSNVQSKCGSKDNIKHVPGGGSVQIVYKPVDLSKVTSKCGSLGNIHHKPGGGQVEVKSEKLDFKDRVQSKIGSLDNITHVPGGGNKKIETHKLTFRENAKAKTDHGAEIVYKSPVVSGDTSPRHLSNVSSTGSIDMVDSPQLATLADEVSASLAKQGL
Overlap between Fluorescence from tested compound and fluorescence from 4G8 observed [1],Fluorescence from tested compound observed [1],Fluorescence from 4G8 observed [1],Fluorescence from tested compound observed [2],Overlap between Fluorescence from tested compound and fluorescence from AT-100 observed [2],Fluorescence from AT-100 observed [2],Compound,Labelling of immune-positive NFTs and dystrophic neurites [2],Staining of / selectivity for Aβ and tau aggregates in AD brain sections [1]
no correlation and no,yes,yes,yes,yes,yes,CC[n+]1c(/C=C/c2cnc(-c3ccc(C(=O)OC)s3)s2)sc2ccccc21.[I-] [Example Compound 3j],labelled both immune-positive NFTs and dystrophic neurites,
no correlation and no,yes,yes,yes,yes,yes,CC[n+]1c(/C=C/c2ccc(-c3ccc(C(=O)OC)o3)o2)sc2ccccc21.[I-] [Example Compound 3i],labelled both immune-positive NFTs and dystrophic neurites,
no correlation and no,yes,yes,yes,yes,yes,CC[n+]1c(/C=C/c2ccc(-c3ccc4nsnc4c3)s2)sc2ccccc21 [Example Compound 3n],labelled both immune-positive NFTs and dystrophic neurites,
no correlation and no,yes,yes,yes,yes,yes,CC[n+]1c(/C=C/c2ccc(-c3ccc(C#N)s3)s2)sc2ccccc21.[I-] [Example Compound 3t],labelled both immune-positive NFTs and dystrophic neurites,
no correlation and no,yes,yes,yes,yes,yes,CC[n+]1c(/C=C/c2ccc(-c3cccc4nsnc34)s2)sc2ccccc21.[I-] [Example Compound 3o],labelled both immune-positive NFTs and dystrophic neurites,
no correlation and no,yes,yes,yes,yes,yes,CC[n+]1c(/C=C/c2ccc(-c3ccc(C(=O)OC)cn3)s2)sc2ccccc21.[I-] [Example Compound 3k],labelled both immune-positive NFTs and dystrophic neurites,
no correlation and no,yes,yes,yes,yes,yes,CC[n+]1c(/C=C/c2ccc(-c3ccc(OC)s3)s2)sc2ccccc21.[I-] [Example Compound 3h],labelled both immune-positive NFTs and dystrophic neurites,

# Continued, compound first:
Compound,Overlap between Fluorescence from tested compound and fluorescence from 4G8 observed [1],Fluorescence from tested compound observed [1],Fluorescence from 4G8 observed [1],Fluorescence from tested compound observed [2],Overlap between Fluorescence from tested compound and fluorescence from AT-100 observed [2],Fluorescence from AT-100 observed [2],Labelling of immune-positive NFTs and dystrophic neurites [2],Staining of / selectivity for Aβ and tau aggregates in AD brain sections [1]
COC(=O)c1csc(-c2ccc(-c3ccc(-c4nc5ccccc5s4)s3)s2)c1 [Comparative Example 4],,no,yes,,,,,did not display any substantial staining; also recorded: no staining
CC[n+]1c(/C=C/c2ccc(-c3ccc[se]3)s2)[se]c2ccc(OC)cc21.[I-] [Example Compound 3q],no correlation and no,yes,yes,yes,yes,yes,labelled both immune-positive NFTs and dystrophic neurites,
CC[n+]1c(/C=C/c2ccc(-c3ccc(CC(=O)OC)s3)s2)sc2ccccc21.[I-] [Example Compound 3d],no correlation and no,yes,yes,yes,yes,yes,labelled both immune-positive NFTs and dystrophic neurites,
CCn1c(/C=C/c2ccc(-c3ccc(C(=O)OC)s3)s2)nc2ccccc21 [Comparative Example 1],yes,Yes,yes,,,,,"staining towards immune-positive Aβ aggregates, as well as some weak staining of tau-like pathology; also recorded: selectivity for Aβ"
CC[CH-][n+]1c(/C=C/c2ccc(-c3ccc(C(=O)OC)s3)s2)sc2ccccc21 [Example Compound 3g],no correlation and no,yes,yes,yes,yes,yes,labelled both immune-positive NFTs and dystrophic neurites,
CC[n+]1c(/C=C/c2ccc(-c3ccc(C(=O)OC)s3)s2)sc2cc(OC)ccc21.[I-] [Example Compound 3e],no correlation and no,yes,yes,yes,yes,yes,labelled both immune-positive NFTs and dystrophic neurites,
COC(=O)Cc1cc(-c2ccc(-c3nc4ccccc4s3)s2)sc1-c1cc(C(=O)OC)cs1 [Comparative Example 2],,no,yes,,,,,did not display any substantial staining; also recorded: no staining
CC[n+]1c(/C=C/c2ccc(-c3ccc(C(=O)OC)[se]3)s2)sc2ccccc21.[I-] [Example Compound 3r],no correlation and no,yes,yes,yes,yes,yes,labelled both immune-positive NFTs and dystrophic neurites,
O=C(O)Cc1cc(-c2ccc(-c3nc4ccccc4s3)s2)sc1-c1cc(C(=O)O)cs1 [Comparative Example 3],yes,yes,yes,,,,,staining of both Aβ and tau aggregates; also recorded: no selectivity
